Results as given in patent publication US20230149515A1, “INHIBITION OF SARS-COV-2 VIRAL ENTRY THROUGH ORAL ADMINISTRATION OF L[…] USES THEREOF” (priority 2020, published 2023).

Test system: SARS-CoV-2
Format: cell-based
Conditions: positive control; Huh7 cells; FIG. 1 (50 nanomolar Remdesivir)

Structure (SMILES): CCC(CC)COC(=O)[C@H](C)N[P@](=O)(OC[C@H]1O[C@@](C#N)(c2ccc3c(N)ncnn23)[C@H](O)[C@@H]1O)Oc1ccccc1 [Remdesivir, reference compound]
- efficacy in SARS-CoV-2 infectivity assay: 100%
